From patent publication US20250177532A1, “TEMPERATURE-SENSITIVE HYDROGEL FOR CANCER TREATMENT CAPABLE OF PHOTOTHERMAL THERAPY AND PREPARATION METHOD THEREFOR” (KOREA NATIONAL UNIVERSITY OF TRANSPORTATION …, priority 2022, published 2025) come the findings set out here.

For this data set, the system named is 4T1 cells. Kind of data set: Photothermal effect in vitro: cell viability by WST-1 assay with/without near-infrared irradiation. To be noted: Triton X 0.1%. Here is the method: To evaluate photothermal effect in in vitro, cells were seeded (1×10^4 cells/well) in 96 well-plate and incubated for 12 h. […] Then, the well was irradiated with near-infrared light for 5 min and incubated again for 24 hours. Then, cell viability was measured using WST-1 assay.
Background: Formazan colour is commonly taken as a measure of viable cells.

Consider Triton X, for which the “Cell viability (%)” value (control of Table 1 (GNS experiment, near-infrared irradiation)) amounted to 5.02%; the “Cell viability (%)” value (control of Table 2, NIR irradiated) is reported as 10.58%; the “Cell viability (%)” value (control of Table 2, no NIR) is on record as 10.23%.
